# Assay results published in patent EP4417602A1, “SUBSTITUTED PYRAZOLE CARBOXAMIDES, SALTS THEREOF AND THEIR USE AS HERBICIDALLY ACTIVE SUBSTANCES” (Bayer AG, priority 2023, dated 2024).
# Key:
# POAAN [1] = assay: B. Herbicidal post-emergence action on harmful plants (Tables B); format: in vivo, Poa annua; conditions: application rate 1280 g/ha; Table B7a
# Protocol: (§1) Seeds of mono- and dicotyledonous weed plants were placed in plastic pots in sandy loam soil (doubly sown with in each case one species of mono- or dicotyledonous weed plants per pot), covered with soil and cultivated in a greenhouse under controlled growth conditions. 2 to 3 weeks after sowing, the test plants were treated at the one-leaf stage. The compounds of the invention, formulated in the form of wettable powders (WP) or as emulsion concentrates (EC), were applied onto the green parts of the plants as aqueous suspension or emulsion with addition of 0.5% additive at a water application rate of 600 liters per hectare (converted). After the test plants had been kept in the greenhouse under optimum growth conditions for about 3 weeks, the activity of the preparations was rated visually in comparison to untreated controls. For example, 100% activity = the plants have died, 0% activity = like control plants. Tables B1 to B12, below, show the effects of selected compounds of the general formula (I) according to table 1 on various harmful plants and an application rate corresponding to 1280 g/ha or below obtained by the experimental procedure mentioned above. Table B1a: post-emergence activity at 1280g/ha against ABUTH in %
# DIGSA [2] = assay: A. Herbicidal pre-emergence action on harmful plants (Tables A); format: in vivo, Digitaria sanguinalis
# Source text: (§2) Seeds of mono- and dicotyledonous weed plants were sown in plastic pots (double sowings with one species of mono- and one species of dicotyledonous weed plants per pot), in sandy loam, and covered with soil. The compounds according to the invention, formulated in the form of wettable powders (WP) or as emulsifiable concentrates (EC), were applied to the surface of the covering soil as aqueous suspension or emulsion, with the addition of 0.5% of an additive, at an application rate of 6001 of water per hectare (converted). Following treatment, the pots were placed in a greenhouse and kept under optimum growth conditions for the test plants. The visual grading of the damage to the test plants was carried out after ca. 3 weeks in comparison to untreated controls (herbicidal effect in percent (%): 100% effect = plants have died off, 0% effect = as control plants). Tables A1 to A12, below, show the effects of selected compounds of the general formula (I) according to table 1 on various harmful plants and an application rate corresponding to 1280 g/ha or below obtained by the experimental procedure mentioned above. Table A1: pre-emergence activity at 1280g/ha against ABUTH in %
# AMARE [3] = assay: B. Herbicidal post-emergence action on harmful plants (Tables B); format: in vivo, Amaranthus retroflexus; conditions: application rate 1280 g/ha; Table B8
# Protocol: as §1
# SETVI = assay: A. Herbicidal pre-emergence action on harmful plants (Tables A); format: in vivo, Setaria viridis; conditions: visual grading after ca. 3 weeks vs untreated controls, 100% = plants have died off, 0% = as control plants
# Source text: as §2
# POAAN [4] = assay: as above; format: in vivo, Poa annua
# Source text: as §2
# LOLRI = assay: as above; format: in vivo, Lolium rigidum; conditions: visual grading after ca. 3 weeks vs untreated controls, 100% = plants have died off, 0% = as control plants
# Source text: as §2
# ECHCG [5] = assay: as above; format: in vivo, Echinochloa crus-galli; conditions: visual grading after ca. 3 weeks vs untreated controls, 100% = plants have died off, 0% = as control plants
# Source text: as §2
# STEME [6] = assay: B. Herbicidal post-emergence action on harmful plants (Tables B); format: in vivo, Stellaria media; conditions: application rate 1280 g/ha; Table B6
# Protocol: as §1
# STEME [7] = assay: A. Herbicidal pre-emergence action on harmful plants (Tables A); format: in vivo, Stellaria media; conditions: visual grading after ca. 3 weeks vs untreated controls, 100% = plants have died off, 0% = as control plants
# Source text: as §2
# ECHCG [8] = assay: B. Herbicidal post-emergence action on harmful plants (Tables B); format: in vivo, Echinochloa crus-galli; conditions: application rate 1280 g/ha; Table B2a
# Protocol: as §1
# ALOMY = assay: A. Herbicidal pre-emergence action on harmful plants (Tables A); format: in vivo, Alopecurus myosuroides; conditions: application rate 1280 g/ha; Table A9a
# Source text: as §2
# ABUTH = assay: B. Herbicidal post-emergence action on harmful plants (Tables B); format: in vivo, Abutilon theophrasti; conditions: application rate 1280 g/ha; Table B1a
# Protocol: as §1
# VERPE = assay: as above; format: in vivo, Veronica persica; conditions: application rate 1280 g/ha; Table B11a
# Protocol: as §1
# MATIN [9] = assay: A. Herbicidal pre-emergence action on harmful plants (Tables A); format: in vivo, Matricaria inodora; conditions: visual grading after ca. 3 weeks vs untreated controls, 100% = plants have died off, 0% = as control plants
# Source text: as §2
# DIGSA [10] = assay: B. Herbicidal post-emergence action on harmful plants (Tables B); format: in vivo, Digitaria sanguinalis; conditions: application rate 1280 g/ha; Table B12a
# Protocol: as §1
# AMARE [11] = assay: A. Herbicidal pre-emergence action on harmful plants (Tables A); format: in vivo, Amaranthus retroflexus
# Source text: as §2
# MATIN [12] = assay: B. Herbicidal post-emergence action on harmful plants (Tables B); format: in vivo, Matricaria inodora; conditions: application rate 1280 g/ha; Table B4a
# Protocol: as §1
# [13] = application rate 320 g/ha, Table A12b
# [14] = application rate 1280 g/ha, Table A12a
# [15] = application rate 1280 g/ha, visual grading after ca. 3 weeks vs untreated controls, 100% = plants have died off, 0% = as control plants
# [16] = application rate 320 g/ha, Table A7b
# [17] = application rate 80 g/ha, Table A7c
Structure (SMILES),pre-emergence activity against DIGSA (DIGSA [2]; [13]),pre-emergence activity against DIGSA (DIGSA [2]; [14]),post-emergence activity against AMARE (AMARE [3]),pre-emergence activity against SETVI (SETVI; application rate 1280 g/ha),pre-emergence activity against POAAN (POAAN [4]; [15]),pre-emergence activity against LOLRI (LOLRI; application rate 1280 g/ha),pre-emergence activity against ECHCG (ECHCG [5]; application rate 320 g/ha),pre-emergence activity against ECHCG (ECHCG [5]; application rate 1280 g/ha),pre-emergence activity against STEME (STEME [7]; application rate 1280 g/ha),pre-emergence activity against SETVI (SETVI; application rate 320 g/ha),pre-emergence activity against POAAN (POAAN [4]; [16]),pre-emergence activity against LOLRI (LOLRI; application rate 320 g/ha),pre-emergence activity against MATIN (MATIN [9]; application rate 1280 g/ha),pre-emergence activity against POAAN (POAAN [4]; [17]),other results
CCOCc1nn(C)cc1C(=O)N1CCC1Cc1ccccc1F (racemic) [Example I-105],100%,100%,90%,100%,100%,90%,90%,100%,–,–,–,–,–,–,post-emergence activity against POAAN (POAAN [1]): 90%; post-emergence activity against STEME (STEME [6]): 90%
COCc1nn(C)cc1C(=O)N1CCCC1Cc1ccccc1C (racemic) [Example I-078],90%,90%,–,100%,100%,100%,90%,100%,90%,90%,100%,100%,90%,–,pre-emergence activity against STEME (STEME [7]; application rate 80 g/ha): 90%; pre-emergence activity against STEME (STEME [7]; application rate 320 g/ha): 90%; post-emergence activity against POAAN (POAAN [1]): 90%; post-emergence activity against ECHCG (ECHCG [8]): 90%; pre-emergence activity against ALOMY (ALOMY): 90%; post-emergence activity against ABUTH (ABUTH): 90%; post-emergence activity against VERPE (VERPE): 90%; pre-emergence activity against MATIN (MATIN [9]; application rate 320 g/ha): 90%
CCOCc1nn(C)cc1C(=O)N1CCC1Cc1ccccc1Cl (racemic) [Example I-106],90%,100%,90%,100%,100%,90%,90%,100%,90%,100%,100%,–,–,–,pre-emergence activity against SETVI (SETVI; application rate 80 g/ha): 90%; pre-emergence activity against ECHCG (ECHCG [5]; application rate 80 g/ha): 90%
Cn1cc(C(=O)N2CCC2Cc2c(F)cccc2Cl)c(COCC(F)F)n1 (racemic) [Example I-107],90%,100%,90%,100%,100%,90%,90%,100%,90%,–,100%,–,100%,–,post-emergence activity against STEME (STEME [6]): 90%; post-emergence activity against VERPE (VERPE): 90%
"C=CCOCc1c(C(=O)N2CCCC2Cc2ccccc2F)cnn1C (single isomer, unassigned) [Example I-144]",–,90%,90%,90%,100%,–,90%,100%,90%,–,100%,–,–,100%,–
COCc1nn(C)cc1C(=O)N1CCC1Cc1ccccc1Cl (racemic) [Example I-113],–,–,90%,–,100%,–,–,90%,–,–,100%,–,90%,–,–
CCOCc1nn(C)cc1C(=O)N1CCC1Cc1c(F)cccc1Cl (racemic) [Example I-110],90%,90%,100%,100%,100%,100%,90%,100%,90%,–,90%,90%,90%,–,–
C=CCn1cc(C(=O)N2CCCC2Cc2ccccc2F)c(COC)n1 (racemic) [Example I-039],90%,90%,–,90%,100%,90%,–,90%,90%,90%,100%,90%,90%,90%,post-emergence activity against ECHCG (ECHCG [8]): 90%; post-emergence activity against DIGSA (DIGSA [10]): 90%; pre-emergence activity against ALOMY (ALOMY): 90%
"COCc1nn(C)cc1C(=O)N1CCCC1Cc1c(F)cccc1Cl (single isomer, unassigned) [Example I-087]",100%,100%,90%,100%,100%,100%,100%,100%,90%,100%,100%,100%,90%,100%,"pre-emergence activity against STEME (STEME [7]; application rate 320 g/ha): 90%; pre-emergence activity against AMARE (AMARE [11]; application rate 320 g/ha, Table A8b): 90%; pre-emergence activity against AMARE (AMARE [11]; [15]): 90%; pre-emergence activity against DIGSA (DIGSA [2]; application rate 80 g/ha, Table A12c): 90%; pre-emergence activity against SETVI (SETVI; application rate 80 g/ha): 100%; pre-emergence activity against ALOMY (ALOMY): 90%; pre-emergence activity against LOLRI (LOLRI; application rate 80 g/ha): 100%; pre-emergence activity against ECHCG (ECHCG [5]; application rate 80 g/ha): 90%; post-emergence activity against STEME (STEME [6]): 90%; pre-emergence activity against MATIN (MATIN [9]; application rate 320 g/ha): 90%"
COCc1c(C(=O)N2CCCC2Cc2ccc(Cl)cc2Cl)cnn1C (racemic) [Example I-166],–,–,–,90%,100%,100%,–,90%,90%,–,90%,–,–,90%,post-emergence activity against POAAN (POAAN [1]): 90%; pre-emergence activity against AMARE (AMARE [11]; [15]): 90%; post-emergence activity against ECHCG (ECHCG [8]): 90%; post-emergence activity against MATIN (MATIN [12]): 90%; post-emergence activity against VERPE (VERPE): 90%
COCc1nn(CCC(OC)OC)cc1C(=O)N1CCCC1Cc1ccccc1F (racemic) [Example I-048],–,90%,90%,–,100%,90%,–,90%,–,–,90%,–,–,–,–
